Experimental data as given in patent US11612606B2, “8-aminoisoquinoline compounds and uses thereof” (priority 2018, dated 2023).
Like-named read-outs stand apart in the source and are kept apart here.

Biological target: HPK full length, T165E S171E (Homo sapiens (Human), UniProt Q92918, S171E/T165E)
Assay: HPK1-FL HTRF enzymatic assay ("HTRF")
Format: biochemical
Settings: ATP 1 mM
In short: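 Full-length HPK1 (T165E/S171E) was preincubated 30 min with compound, then reacted 60 min with biotin-SLP-76 and 1 mM ATP. Phospho-SLP-76 was detected by HTRF (Eu-anti-pSLP76 antibody, SA-XL665) after a further 60 min.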

Chain of HPK full length, T165E S171E (Q92918 whole entry T165E/S171E, looked up): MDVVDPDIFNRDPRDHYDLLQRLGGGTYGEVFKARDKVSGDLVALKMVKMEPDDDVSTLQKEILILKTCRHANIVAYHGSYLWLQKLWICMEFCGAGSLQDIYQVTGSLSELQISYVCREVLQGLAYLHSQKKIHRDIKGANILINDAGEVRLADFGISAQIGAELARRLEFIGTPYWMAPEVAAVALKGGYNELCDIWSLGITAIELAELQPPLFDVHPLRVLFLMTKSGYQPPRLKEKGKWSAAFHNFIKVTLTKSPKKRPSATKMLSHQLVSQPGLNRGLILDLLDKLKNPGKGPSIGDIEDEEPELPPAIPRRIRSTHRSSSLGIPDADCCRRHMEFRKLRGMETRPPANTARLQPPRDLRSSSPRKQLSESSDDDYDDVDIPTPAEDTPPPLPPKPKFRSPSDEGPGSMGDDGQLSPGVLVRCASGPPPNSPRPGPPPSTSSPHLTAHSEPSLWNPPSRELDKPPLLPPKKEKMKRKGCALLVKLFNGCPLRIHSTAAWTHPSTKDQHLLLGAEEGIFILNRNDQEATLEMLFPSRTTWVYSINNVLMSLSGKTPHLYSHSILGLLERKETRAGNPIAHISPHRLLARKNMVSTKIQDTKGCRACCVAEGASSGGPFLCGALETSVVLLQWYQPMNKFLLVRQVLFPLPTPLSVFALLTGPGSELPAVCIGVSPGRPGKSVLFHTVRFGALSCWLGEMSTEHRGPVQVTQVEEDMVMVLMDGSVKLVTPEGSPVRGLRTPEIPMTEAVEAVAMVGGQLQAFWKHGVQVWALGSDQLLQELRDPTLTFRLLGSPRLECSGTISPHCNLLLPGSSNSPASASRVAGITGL

Row | SMILES | Ki (read-out: HPK1 Ki) | Ki (HPK1 Ki)
1 | Cc1c(-c2cc3cc(NC(=O)OC4CC5(CCNCC5)C4)ncc3c(N)c2F)cnc2c1NCCO2 [Compound 580, 7-Azaspiro[3.5]nonan-2-yl (8-amino-7-fluoro-6-(8-methyl-2,3-dihydro-1H-pyrido[2,3-b][1,4]oxazin-7-yl)isoquinolin-3-yl)carbamate] | < 0.013 nM | –
2 | Cc1c(-c2cc3cc(NC(=O)SC4CCOCC4)ncc3c(N)c2F)cnc2c1NCCO2 [Compound 601, S-Tetrahydropyran-4-yl N-[8-amino-7-fluoro-6-(8-methyl-2,3-dihydro-1H-pyrido[2,3-b][1,4]oxazin-7-yl)-3-isoquinolyl]carbamothioate] | < 0.013 nM | –
3 | Cc1c(-c2cc3cc(NC(=O)NC4CC4)ncc3c(N)c2F)cnc2c1NCCO2 [Compound 702, 1-(8-Amino-7-fluoro-6-(8-methyl-2,3-dihydro-1H-pyrido[2,3-b][1,4]oxazin-7-yl)isoquinolin-3-yl)-3-cyclopropylurea] | < 0.013 nM | –
4 | CNC(=O)Nc1cc2cc(-c3cnc4c(c3C)NCCO4)c(F)c(N)c2cn1 [Compound 704, 1-(8-Amino-7-fluoro-6-(8-methyl-2,3-dihydro-1H-pyrido[2,3-b][1,4]oxazin-7-yl)isoquinolin-3-yl)-3-methylurea] | < 0.013 nM | –
5 | CNC(=O)Nc1cc2cc(-c3cnc4c(c3C)NCCC4)c(F)c(N)c2cn1 [Compound 705, 1-[8-Amino-7-fluoro-6-(4-methyl-5,6,7,8-tetrahydro-1,5-naphthyridin-3-yl)-3-isoquinolyl]-3-methyl-urea] | 0.15 nM | –
6 | Cc1c(-c2cc3cc(NC(=O)NC4CCCC4)ncc3c(N)c2F)cnc2c1NCCO2 [Compound 706, 1-(8-Amino-7-fluoro-6-(8-methyl-2,3-dihydro-1H-pyrido[2,3-b][1,4]oxazin-7-yl)isoquinolin-3-yl)-3-cyclopentylurea] | < 0.013 nM | –
7 | Cc1c(-c2cc3cc(NC(=O)NC4CCC4)ncc3c(N)c2F)cnc2c1NCCO2 [Compound 707, 1-(8-Amino-7-fluoro-6-(8-methyl-2,3-dihydro-1H-pyrido[2,3-b][1,4]oxazin-7-yl)isoquinolin-3-yl)-3-cyclobutylurea] | < 0.013 nM | –
8 | Cc1c(-c2cc3cc(NC(=O)NC4CC5(C4)CN(CC(F)(F)F)C5)ncc3c(N)c2F)cnc2c1NCCO2 [Compound 708, 1-(8-Amino-7-fluoro-6-(8-methyl-2,3-dihydro-1H-pyrido[2,3-b][1,4]oxazin-7-yl)isoquinolin-3-yl)-3-(2-(2,2,2-trifluoroethyl)-2-azaspiro[3.3]heptan-6-yl)urea] | < 0.013 nM | –
9 | CC(=O)N1CC2(CC(NC(=O)Nc3cc4cc(-c5cnc6c(c5C)NCCO6)c(F)c(N)c4cn3)C2)C1 [Compound 709, 1-(2-Acetyl-2-azaspiro[3.3]heptan-6-yl)-3-(8-amino-7-fluoro-6-(8-methyl-2,3-dihydro-1H-pyrido[2,3-b][1,4]oxazin-7-yl)isoquinolin-3-yl)urea] | < 0.013 nM | –
10 | Cc1c(-c2cc3cc(NC(=O)N[C@H]4[C@@H]5COC[C@@H]54)ncc3c(N)c2F)cnc2c1NCCO2 [Compound 713a, 1-(8-Amino-7-fluoro-6-(8-methyl-2,3-dihydro-1H-pyrido[2,3-b][1,4]oxazin-7-yl)isoquinolin-3-yl)-3-((1R,5S,6r)-3-oxabicyclo[3.1.0]hexan-6-yl)urea] | < 0.013 nM | –
11 | Cc1c(-c2cc3cc(NC(=O)NC4CC(F)(F)C4)ncc3c(N)c2F)cnc2c1NCCO2 [Compound 714, 1-(8-Amino-7-fluoro-6-(8-methyl-2,3-dihydro-1H-pyrido[2,3-b][1,4]oxazin-7-yl)isoquinolin-3-yl)-3-(3,3-difluorocyclobutyl)urea] | < 0.013 nM | –
12 | Cc1c(-c2cc3cc(NC(=O)N[C@@H]4CCOC4)ncc3c(N)c2F)cnc2c1NCCC2 [Compound 719a, (R)-1-(8-Amino-7-fluoro-6-(4-methyl-5,6,7,8-tetrahydro-1,5-naphthyridin-3-yl)isoquinolin-3-yl)-3-(tetrahydrofuran-3-yl)urea] | 0.016 nM | –
13 | CCNC(=O)Nc1cc2cc(-c3cnc4c(c3C)NCCO4)c(F)c(N)c2cn1 [Compound 720, 1-(8-Amino-7-fluoro-6-(8-methyl-2,3-dihydro-1H-pyrido[2,3-b][1,4]oxazin-7-yl)isoquinolin-3-yl)-3-ethylurea] | < 0.013 nM | –
14 | Cc1c(-c2cc3cc(NC(=O)NC4CN(CC(F)(F)F)C4)ncc3c(N)c2F)cnc2c1NCCO2 [Compound 721, 1-(8-Amino-7-fluoro-6-(8-methyl-2,3-dihydro-1H-pyrido[2,3-b][1,4]oxazin-7-yl)isoquinolin-3-yl)-3-(1-(2,2,2-trifluoroethyl)azetidin-3-yl)urea] | < 0.013 nM | –
15 | Cc1c(-c2cc3cc(NC(=O)N[C@@H]4CCC[C@@H]4F)ncc3c(N)c2F)cnc2c1NCCO2 [Compound 727a, 1-[8-Amino-7-fluoro-6-(8-methyl-2,3-dihydro-1H-pyrido[2,3-b][1,4]oxazin-7-yl)-3-isoquinolyl]-3-[(1R,2S)-2-fluorocyclopentyl]urea] | < 0.013 nM | –
16 | CO[C@@H]1CC[C@@H](NC(=O)Nc2cc3cc(-c4cnc5c(c4C)NCCO5)c(F)c(N)c3cn2)C1 [Compound 730a, 1-(8-amino-7-fluoro-6-(8-methyl-2,3-dihydro-1H-pyrido[2,3-b][1,4]oxazin-7-yl)isoquinolin-3-yl)-3-((1R,3R)-3-methoxycyclopentyl)urea] | – | < 0.013 nM
17 | CO[C@H]1CC[C@H](NC(=O)Nc2cc3cc(-c4cnc5c(c4C)NCCO5)c(F)c(N)c3cn2)C1 [Compound 730b, 1-(8-amino-7-fluoro-6-(8-methyl-2,3-dihydro-1H-pyrido[2,3-b][1,4]oxazin-7-yl)isoquinolin-3-yl)-3-((1S,3S)-3-methoxycyclopentyl)urea] | – | < 0.013 nM
18 | CO[C@H]1CC[C@@H](NC(=O)Nc2cc3cc(-c4cnc5c(c4C)NCCO5)c(F)c(N)c3cn2)C1 [Compound 730c, 1-(8-amino-7-fluoro-6-(8-methyl-2,3-dihydro-1H-pyrido[2,3-b][1,4]oxazin-7-yl)isoquinolin-3-yl)-3-((1R,3S)-3-methoxycyclopentyl)urea] | – | < 0.013 nM
19 | CO[C@@H]1CC[C@H](NC(=O)Nc2cc3cc(-c4cnc5c(c4C)NCCO5)c(F)c(N)c3cn2)C1 [Compound 730d, 1-(8-amino-7-fluoro-6-(8-methyl-2,3-dihydro-1H-pyrido[2,3-b][1,4]oxazin-7-yl)isoquinolin-3-yl)-3-((1S,3R)-3-methoxycyclopentyl)urea] | – | < 0.013 nM
20 | Cc1c(-c2cc3cc(NC(=O)N[C@H]4C[C@H](F)C4)ncc3c(N)c2F)cnc2c1NCCC2 [Compound 732a, 1-(8-amino-7-fluoro-6-(4-methyl-5,6,7,8-tetrahydro-1,5-naphthyridin-3-yl)isoquinolin-3-yl)-3-((1r,3r)-3-fluorocyclobutyl)urea] | < 0.013 nM | –
21 | CO[C@H]1C[C@H](NC(=O)Nc2cc3cc(-c4cnc5c(c4C)NCCO5)c(F)c(N)c3cn2)C1 [Compound 733a, 1-[8-Amino-7-fluoro-6-(8-methyl-2,3-dihydro-1H-pyrido[2,3-b][1,4]oxazin-7-yl)-3-isoquinolyl]-3-(3-methoxycyclobutyl)urea] | < 0.013 nM | –
22 | Cc1c(-c2cc3cc(NC(=O)N[C@H]4C[C@H]4F)ncc3c(N)c2F)cnc2c1NCCO2 [Compound 734a, 1-[8-Amino-7-fluoro-6-(8-methyl-2,3-dihydro-1H-pyrido[2,3-b][1,4]oxazin-7-yl)-3-isoquinolyl]-3-[(1S,2R)-2-fluorocyclopropyl]urea] | < 0.013 nM | –
23 | Cc1c(-c2cc3cc(NC(=O)NC4CC5(C4)CN(CC(F)F)C5)ncc3c(N)c2F)cnc2c1NCCC2 [Compound 739, 1-(8-Amino-7-fluoro-6-(4-methyl-5,6,7,8-tetrahydro-1,5-naphthyridin-3-yl)isoquinolin-3-yl)-3-(2-(2,2-difluoroethyl)-2-azaspiro[3.3]heptan-6-yl)urea] | < 0.013 nM | –
24 | Cc1c(-c2cc3cc(NC(=O)N[C@H]4C[C@]5(CCOC5)C4)ncc3c(N)c2F)cnc2c1NCCC2 [Compound 740a, 1-(8-Amino-7-fluoro-6-(4-methyl-5,6,7,8-tetrahydro-1,5-naphthyridin-3-yl)isoquinolin-3-yl)-3-((2s,4s)-6-oxaspiro[3.4]octan-2-yl)urea] | < 0.013 nM | –
25 | Cc1c(-c2cc3cc(NC(=O)N[C@H]4C[C@@]5(CCOC5)C4)ncc3c(N)c2F)cnc2c1NCCC2 [Compound 740b, 1-(8-Amino-7-fluoro-6-(4-methyl-5,6,7,8-tetrahydro-1,5-naphthyridin-3-yl)isoquinolin-3-yl)-3-((2r,4r)-6-oxaspiro[3.4]octan-2-yl)urea] | < 0.013 nM | –
26 | Cc1c(-c2cc3cc(NC(=O)N(C)C)ncc3c(N)c2F)cnc2c1NCCO2 [Compound 742, 3-(8-Amino-7-fluoro-6-(8-methyl-2,3-dihydro-1H-pyrido[2,3-b][1,4]oxazin-7-yl)isoquinolin-3-yl)-1,1-dimethylurea] | 1.12 nM | –
27 | Cc1c(-c2cc3cc(NC(=O)N4CCCC4)ncc3c(N)c2F)cnc2c1NCCO2 [Compound 745, N-(8-Amino-7-fluoro-6-(8-methyl-2,3-dihydro-1H-pyrido[2,3-b][1,4]oxazin-7-yl)isoquinolin-3-yl)pyrrolidine-1-carboxamide] | 0.29 nM | –
28 | Cc1c(-c2cc3cc(NC(=O)NC(C)C)ncc3c(N)c2F)cnc2c1NCCO2 [Compound 746, 1-(8-Amino-7-fluoro-6-(8-methyl-2,3-dihydro-1H-pyrido[2,3-b][1,4]oxazin-7-yl)isoquinolin-3-yl)-3-isopropylurea] | < 0.013 nM | –
29 | Cc1c(-c2cc3cc(NC(=O)N[C@H]4C[C@@H](F)C4)ncc3c(N)c2F)cnc2c1NCCO2 [Compound 748a, 1-(8-Amino-7-fluoro-6-(8-methyl-2,3-dihydro-1H-pyrido[2,3-b][1,4]oxazin-7-yl)isoquinolin-3-yl)-3-((1s,3s)-3-fluorocyclobutyl)urea] | < 0.013 nM | –
30 | Cc1c(-c2cc3cc(NC(=O)N[C@H]4C[C@H](F)C4)ncc3c(N)c2F)cnc2c1NCCO2 [Compound 748b, 1-(8-Amino-7-fluoro-6-(8-methyl-2,3-dihydro-1H-pyrido[2,3-b][1,4]oxazin-7-yl)isoquinolin-3-yl)-3-((1r,3r)-3-fluorocyclobutyl)urea] | 0.018 nM | –
